Results reported in US10155936B2, “Parkin ligase activation methods and compositions” (An2H Discovery Limited, priority 2014, dated 2018).

Tests used:
Parkin ligase [1] = molecular target: T1, Parkin ligase (Homo sapiens, UniProt O60260); test: Parkin pUB auto-ubiquitinylation assay (TR-FRET); type: biochemical; conditions: for Parkin activity in an auto-ubiquitination assay: pUb activated Parkin, E1-E2 cascade, TR-FRET signal, FIG. 3, FIG. 5
T1 construct: Enzyme 3: Parkin-His tagged 203 μM (10.5 mg/ml) Supplied by An2H
Source text: A Parkin pUB Auto-ubiquitinylation Assay is used to evaluate a candidate compound's potency to activate Parkin's ability to Auto-ubiquitinylate itself.
The principle of this assay is that the E3 Ligase Parkin catalyzes the transfer of Ubiquitin to target proteins, but also has the ability to auto-ubiquitinylate itself. The phospho-Ubiquition (pUb) added to the assay alters the Parkin to a state where small molecule activators can enable the Parkin to auto-ubiquitinylate though the E1-E2 cascade reaction. The use of a Eu cryptate Ubiquition and anti 6His-d2 that binds to the His tagged Parkin will give a signal when the Eu cryptate Ubiquition is auto-ubiquitinylate onto the Parkin which can be monitored by TR-FRET.
Similar to the Activity-based probe assay in Examples 2 and 3, screening for activating compounds can be distinguished from the controls as follows: • 100% activation signal=pUb activated Parkin+40 nM control activator in DMSO. • 0% activation signal=pUb activated Parkin+DMSO only. • Parkin activators can be identified by an increase of the 0% activation signal TR-FRET signal. […]
Assay Procedure: • 1) Load assay plate wells with 4.9 μl 400.0 nM Parkin, 800 nM pUb in reaction buffer by use of Bravo. • 2) Deliver 0.1 μl 100× activator candidates in DMSO by use of HP D-300 compound dispenser. […] Add each compound and control in duplicate wells. • 3) Spin 1000 rpm, 2 minutes, at room temp. • 4) Incubate plate for 15 minutes at room temp. • 5) Add 5 μl 10 nM E1, 100 nM E2, 17.6 nM Ubiquitin Eu and 2 mM ATP in Reaction Buffer by use of Bravo. • 6) Spin 1000 rpm, 2 minutes, at room temp. • 7) Incubate plate for 120 minutes at room temp. • 8) Add 10 μl 13.4 nM anti his d2 in detection buffer by use of Bravo. • 9) Spin 1000 rpm, 2 minutes, at room temp. • 10) Incubate plate for 60 minutes at room temp. • 11) Read plates on Perkin Elmer Envision instrument.
(§1) Data Analysis: The Data can be read in CSV files. […]

Parkin ligase [2] = molecular target: T2, Parkin ligase (Homo sapiens, UniProt O60260); test: Activity-based probe assay using a ubiquitin vinyl sulfone probe (TR-FRET); type: biochemical; conditions: heat activated Parkin, HA-Ub-VS probe, TR-FRET signal; FIG. 1, FIG. 2
T2 construct: Enzyme: Parkin-His tagged 203 μM (10.5 mg/ml)
T2 sequence (O60260 1-465): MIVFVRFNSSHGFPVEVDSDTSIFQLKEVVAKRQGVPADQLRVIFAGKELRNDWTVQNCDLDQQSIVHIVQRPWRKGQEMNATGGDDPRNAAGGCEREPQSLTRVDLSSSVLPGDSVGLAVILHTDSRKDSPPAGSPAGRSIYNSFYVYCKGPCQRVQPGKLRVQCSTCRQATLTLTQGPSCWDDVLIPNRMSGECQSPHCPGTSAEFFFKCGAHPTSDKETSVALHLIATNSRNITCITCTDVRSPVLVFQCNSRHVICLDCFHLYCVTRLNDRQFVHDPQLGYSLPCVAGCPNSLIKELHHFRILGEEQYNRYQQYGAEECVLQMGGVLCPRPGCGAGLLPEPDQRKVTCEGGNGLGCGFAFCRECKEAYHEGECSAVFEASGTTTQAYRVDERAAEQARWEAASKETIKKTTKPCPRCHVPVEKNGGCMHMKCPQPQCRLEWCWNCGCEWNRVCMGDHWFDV
Experimental: A Ubiquitin vinyl sulfone probe can be used that irreversibly binds to the active site cysteine of Parkin ligase. Covalent attachment of the probe to the Parkin can be monitored by TR-FRET. Candidate activator compounds can be identified by increasing the activity of Parkin ligase due to an increase in TR-FRET signal. Screening for activating compounds can be distinguished from the controls as follows: • 100% activation signal=Heat activated Parkin+100 nM control activator in DMSO. 0% activation signal=Heat activated Parkin+DMSO only. Parkin activators can be identified by an increase of the 0% activation signal TR-FRET signal. […]
as §1

Parkin ligase [3] = molecular target: T2, Parkin ligase; test: Tandem mass spectrometry of Parkin ligase incubated with compound, after proteolytic digestion; type: binding; conditions: tandem mass spectrometry of proteolytic fragments
Experimental: Parkin ligase was incubated with AH007 compound, and the mixture was then subject to tandem mass spectometry analysis after proteolytic digestion to produce fragments of Parkin ligase. […] Compound An2H07 is also fragmented when analyzed by mass spectrometry. Therefore, characteristic pieces of the compound AH007 that are attached to specific residues of Parkin can also be identified. These fragments were characterized for alterations in fragment size indicative of bound small molecule of the predicted molecular weight of AH007. The mass spectrometry data identified three specific fragments of AH007 at two specific residues of Parkin ligase. The data identified a fragment of 253.08-256.09 of AH007 compound attached to cysteine residue 377 of Parkin ligase (C377) and a fragment of 343.14-346.14 of AH007 compound attached to C377. The data also identified a fragment of 253.08-256.09 of AH007 compound attached to cysteine residue 59 of Parkin ligase (C59). […] It is also believed that at least C377 is included in ZnF domains of human Parkin Ligase, and thus accords with the theory that cysteine residues in the flexible Parkin ligase ZnF domains are vulnerable for attachment and/or interruption by small molecule candidates. Peptide fragments of Parkin comprising C59 and/or C377 will be useful to design further binding assays and selection of additional modulating agents.

SMILES | parkin activation in an auto-ubiquitination assay, compound with pUB (Parkin ligase [1]; compound together with pUB, FIGS. 4A and 4B) | Parkin activity in an auto-ubiquitination assay (Parkin ligase [1]) | Parkin Ligase reaction with the Activity-based Ubiquitin vinyl sulfone probe (Parkin ligase [2]) | binding residues of Parkin ligase for the compound (Parkin ligase [3])
O=C(Nc1nc(NC(=O)c2ccccc2)n(-c2ccccc2)n1)c1ccccc1 [AH001, N,N′-(1-phenyl-1H-1,2,4-triazole-3,5-diyl)dibenzamide] | synergistically increases parkin activation | increases Parkin activity | increases the Parkin Ligase reaction | –
Cc1nc2c(-c3ccccc3)c(C)nn2c(S)c1Cc1ccccc1 [AH007, 6-benzyl-2,5-dimethyl-3-phenylpyrazolo[1,5-a]pyrimidine-7-thiol] | – | increases Parkin activity | increases the Parkin Ligase reaction | binds and/or attaches to two specific sites in Parkin ligase: C59 and C377
